Assay results published in paper PMC9950205, “Efficacy, safety, and pharmacokinetics of teduglutide in adult Japanese patients with short bowel syndrome and intestinal failure: two phase III studies with an extension” (Surgery Today, 2022).

System: adult Japanese patients with SBS-IF
Assay: Safety: treatment-emergent adverse events (TEAEs, TESAEs)
Assay type: in vivo
Source text: Safety analyses included the monitoring of adverse events (AEs), body weight, BMI, vital signs, 12-lead electrocardiogram (ECG), serum biochemistry, hematology, and presence of antibodies to teduglutide. AEs were coded using the Medical Dictionary for Regulatory Activities versions 17.1 (TED-C14-004) and 21.0 (SHP633-306 and SHP633-307). Specifically, AEs were treatment-emergent AEs (TEAEs), defined as any unfavorable and unintended sign (including any abnormal laboratory finding), symptom, or disease that occurred during treatment with teduglutide, whether or not the event was considered to be related to the study drug by the clinical study investigator. AEs were also categorized as mild, moderate, or severe. […] AEs were considered related to treatment with teduglutide, or its administration, based on the investigator's medical judgment.

[1] = ≤ 24 weeks (SHP633-306 and TED-C14-004), 0.05 mg/kg/day

CC[C@H](C)[C@H](NC(=O)[C@H](Cc1ccccc1)NC(=O)[C@H](CC(=O)O)NC(=O)[C@H](CCCNC(=N)N)NC(=O)[C@H](C)NC(=O)[C@H](C)NC(=O)[C@H](CC(C)C)NC(=O)[C@H](CC(N)=O)NC(=O)[C@H](CC(=O)O)NC(=O)[C@H](CC(C)C)NC(=O)[C@@H](NC(=O)[C@@H](NC(=O)[C@H](CC(N)=O)NC(=O)[C@H](CCSC)NC(=O)[C@H](CCC(=O)O)NC(=O)[C@H](CC(=O)O)NC(=O)[C@H](CO)NC(=O)[C@H](Cc1ccccc1)NC(=O)[C@H](CO)NC(=O)CNC(=O)[C@H](CC(=O)O)NC(=O)CNC(=O)[C@@H](N)Cc1c[nH]cn1)[C@@H](C)O)[C@@H](C)CC)C(=O)N[C@@H](CC(N)=O)C(=O)N[C@@H](Cc1c[nH]c2ccccc12)C(=O)N[C@@H](CC(C)C)C(=O)N[C@H](C(=O)N[C@@H](CCC(N)=O)C(=O)N[C@H](C(=O)N[C@@H](CCCCN)C(=O)N[C@H](C(=O)N[C@H](C(=O)N[C@@H](CC(=O)O)C(=O)O)[C@@H](C)O)[C@@H](C)CC)[C@@H](C)O)[C@@H](C)CC [teduglutide]
3 n: Somnolence: Events (Total, 0.05 mg/kg/day) | Upper respiratory tract inflammation: Events (Total, 0.05 mg/kg/day) | Vascular pain: Events (Total, 0.05 mg/kg/day) | Vomiting: Events (Total, 0.05 mg/kg/day) | Device occlusion (central venous catheter for PS): Events [1] | Headache: Events [1] | Hepatobiliary disorders: Events [1] | Nasopharyngitis: Events [1]
1 n: Back pain: Events [1] | Catheter site infection: Events [1] | Catheter site pain: Events [1] | Diarrhea: Events [1] | Dry skin: Events [1] | Enteritis: Events [1] | Hematuria: Events [1] | Hemorrhage subcutaneous: Events [1] | Hypozincemia: Events [1] | Nausea: Events [1] | Oral herpes: Events [1] | Oropharyngeal pain: Events [1] | Pruritus: Events [1] | Stomatitis: Events [1]
11 n: Pyrexia: Events (Total, 0.05 mg/kg/day)
18 n: Skin and subcutaneous tissue disorders: Events (Total, 0.05 mg/kg/day)
6 n: Injury, poisoning, and procedural complications: Events (Total, 0.05 mg/kg/day) | Renal and urinary disorders: Events (Total, 0.05 mg/kg/day) | Vascular disorders: Events (Total, 0.05 mg/kg/day) | Metabolism and nutrition disorders: Events [1] | Pyrexia: Events [1]
19 n: Infections and infestations: Events [1]
121 n: Any TEAE: Events [1]
no AEs: AEs related to growth of pre-existing polyps of the colon or gastrointestinal cancers (during the studies)
2 n: Immune system disorders: Events (Total, 0.05 mg/kg/day) | Insomnia: Events (Total, 0.05 mg/kg/day) | Oral herpes: Events (Total, 0.05 mg/kg/day) | Pruritus: Events (Total, 0.05 mg/kg/day) | Anemia: Events [1] | Dehydration: Events [1] | Enterocolitis: Events [1] | Eye disorder: Events [1] | Musculoskeletal and connective tissue disorders: Events [1] | Renal and urinary disorders: Events [1] | Upper respiratory tract inflammation: Events [1] | Vascular disorders: Events [1] | Vomiting: Events [1]
14 n: Investigations: Events (Total, 0.05 mg/kg/day)
6 (33.3) n (%): Device-related infection (central venous catheter for PS): Patients [1] | Investigations: Patients [1] | Pyrexia: Patients [1]
17 (94.4) n (%): Any TEAE: Patients [1]
3 (16.7) n (%): Psychiatric disorders: Patients (Total, 0.05 mg/kg/day) | Somnolence: Patients (Total, 0.05 mg/kg/day) | Vomiting: Patients (Total, 0.05 mg/kg/day) | Blood and lymphatic system disorders: Patients [1] | Headache: Patients [1] | Nasopharyngitis: Patients [1]
4 n: Injection site reaction: Events (Total, 0.05 mg/kg/day) | Oropharyngeal pain: Events (Total, 0.05 mg/kg/day) | Psychiatric disorders: Events (Total, 0.05 mg/kg/day) | Stomatitis: Events (Total, 0.05 mg/kg/day) | Abdominal distension: Events [1] | Blood and lymphatic system disorders: Events [1] | Injection site reaction: Events [1]
7 n: Nervous system disorders: Events [1]
1 (5.6) n (%): Back pain: Patients [1] | Catheter site infection: Patients [1] | Catheter site pain: Patients [1] | Diarrhea: Patients [1] | Dry skin: Patients [1] | Enteritis: Patients [1] | Enterocolitis: Patients [1] | Hematuria: Patients [1] | Hemorrhage subcutaneous: Patients [1] | Hypozincemia: Patients [1] | Nausea: Patients [1] | Oral herpes: Patients [1] | Oropharyngeal pain: Patients [1] | Pruritus: Patients [1] | Stomatitis: Patients [1]
13 n: Metabolism and nutrition disorders: Events (Total, 0.05 mg/kg/day) | Respiratory, thoracic, and mediastinal disorders: Events (Total, 0.05 mg/kg/day)
21 n: Influenza: Events (Total, 0.05 mg/kg/day) | Nasopharyngitis: Events (Total, 0.05 mg/kg/day) | General disorders and administration site conditions: Events [1]
12 (66.7) n (%): Infections and infestations: Patients (Total, 0.05 mg/kg/day) | Gastrointestinal disorders: Patients [1]
5 n: Abdominal pain: Events [1] | Injury, poisoning, and procedural complications: Events [1] | Respiratory, thoracic, and mediastinal disorders: Events [1] | Skin and subcutaneous tissue disorders: Events [1]
27 n: Gastrointestinal disorders: Events [1]
7 (38.9) n (%): Investigations: Patients (Total, 0.05 mg/kg/day) | Metabolism and nutrition disorders: Patients (Total, 0.05 mg/kg/day) | Nasopharyngitis: Patients (Total, 0.05 mg/kg/day) | Respiratory, thoracic, and mediastinal disorders: Patients (Total, 0.05 mg/kg/day)
8 (44.4) n (%): Musculoskeletal and connective tissue disorders: Patients (Total, 0.05 mg/kg/day) | Nervous system disorders: Patients (Total, 0.05 mg/kg/day) | Pyrexia: Patients (Total, 0.05 mg/kg/day) | Infections and infestations: Patients [1]
9 n: Device-related infection (central venous catheter for PS): Events [1] | Investigations: Events [1]
81 n: Infections and infestations: Events (Total, 0.05 mg/kg/day)
no clinically meaningful changes: Changes in clinical laboratory measures, vital signs, body weight, BMI, or ECG findings (during any of the studies)
mild or moderate: Severity of the majority of all TEAEs (all studies)
0 n (%): Anal abscess: Patients [1] | Arthralgia: Patients [1] | Dermatitis contact: Patients [1] | Hypersensitivity: Patients [1] | Immune system disorders: Patients [1] | Influenza: Patients [1] | Insomnia: Patients [1] | Psychiatric disorders: Patients [1] | Somnolence: Patients [1] | Vascular pain: Patients [1]
8 n: Nausea: Events (Total, 0.05 mg/kg/day)
9 (50.0) n (%): Skin and subcutaneous tissue disorders: Patients (Total, 0.05 mg/kg/day) | General disorders and administration site conditions: Patients [1]
0 n: Anal abscess: Events [1] | Arthralgia: Events [1] | Dermatitis contact: Events [1] | Hypersensitivity: Events [1] | Immune system disorders: Events [1] | Influenza: Events [1] | Insomnia: Events [1] | Psychiatric disorders: Events [1] | Somnolence: Events [1] | Vascular pain: Events [1]
4 (22.2) n (%): Injection site reaction: Patients (Total, 0.05 mg/kg/day) | Nausea: Patients (Total, 0.05 mg/kg/day) | Oropharyngeal pain: Patients (Total, 0.05 mg/kg/day) | Stomatitis: Patients (Total, 0.05 mg/kg/day) | Vascular disorders: Patients (Total, 0.05 mg/kg/day) | Abdominal distension: Patients [1] | Injection site reaction: Patients [1] | Injury, poisoning, and procedural complications: Patients [1] | Metabolism and nutrition disorders: Patients [1] | Nervous system disorders: Patients [1] | Skin and subcutaneous tissue disorders: Patients [1]
5 (27.8) n (%): Injury, poisoning, and procedural complications: Patients (Total, 0.05 mg/kg/day) | Renal and urinary disorders: Patients (Total, 0.05 mg/kg/day) | Abdominal pain: Patients [1] | Respiratory, thoracic, and mediastinal disorders: Patients [1]
12 n: Musculoskeletal and connective tissue disorders: Events (Total, 0.05 mg/kg/day)
26 n: Nervous system disorders: Events (Total, 0.05 mg/kg/day)
2 (11.1) n (%): Immune system disorders: Patients (Total, 0.05 mg/kg/day) | Insomnia: Patients (Total, 0.05 mg/kg/day) | Oral herpes: Patients (Total, 0.05 mg/kg/day) | Pruritus: Patients (Total, 0.05 mg/kg/day) | Upper respiratory tract inflammation: Patients (Total, 0.05 mg/kg/day) | Vascular pain: Patients (Total, 0.05 mg/kg/day) | Anemia: Patients [1] | Dehydration: Patients [1] | Device occlusion (central venous catheter for PS): Patients [1] | Eye disorder: Patients [1] | Hepatobiliary disorders: Patients [1] | Musculoskeletal and connective tissue disorders: Patients [1] | Renal and urinary disorders: Patients [1] | Upper respiratory tract inflammation: Patients [1] | Vascular disorders: Patients [1] | Vomiting: Patients [1]
